Data published in PMC5290327, “SC83288 is a clinical development candidate for the treatment of severe malaria” (Nature Communications, 2017).

Tests used:
M1 (h) = target: T1, M1 (h) (Homo sapiens, UniProt P11229); format: binding
T1 construct: Cerep

P. falciparum strain Dd2 = assay: Growth inhibition assay, asexual blood stages; format: cell-based, Plasmodium falciparum; details: for IC90: Plasmodium falciparum, DD2, 72 h; for absolute Hill coefficient: in vitro growth inhibition curves
[1] = tested on: P. falciparum strain FCR3; assay: Growth inhibition assay; format: cell-based; details: Plasmodium falciparum
A3 (h) = target: T2, A3 (h) (Homo sapiens, UniProt P0DMS8); assay: Radioligand binding
T2 construct: Cerep (contract study)
T2 sequence (P0DMS8 whole entry): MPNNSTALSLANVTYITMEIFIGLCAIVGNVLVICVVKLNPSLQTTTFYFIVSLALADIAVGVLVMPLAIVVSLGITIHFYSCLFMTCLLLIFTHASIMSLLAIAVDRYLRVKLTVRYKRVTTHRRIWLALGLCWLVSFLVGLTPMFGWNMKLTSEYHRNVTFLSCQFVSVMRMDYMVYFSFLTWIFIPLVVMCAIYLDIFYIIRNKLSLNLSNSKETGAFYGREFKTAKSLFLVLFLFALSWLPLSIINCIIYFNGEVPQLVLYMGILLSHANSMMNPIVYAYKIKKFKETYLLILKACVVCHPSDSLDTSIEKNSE

CB1 (h) = target: T3, CB1 (h) (Homo sapiens, UniProt P21554); assay: Radioligand binding
T3 construct: Cerep (contract study)
T3 sequence (P21554 whole entry): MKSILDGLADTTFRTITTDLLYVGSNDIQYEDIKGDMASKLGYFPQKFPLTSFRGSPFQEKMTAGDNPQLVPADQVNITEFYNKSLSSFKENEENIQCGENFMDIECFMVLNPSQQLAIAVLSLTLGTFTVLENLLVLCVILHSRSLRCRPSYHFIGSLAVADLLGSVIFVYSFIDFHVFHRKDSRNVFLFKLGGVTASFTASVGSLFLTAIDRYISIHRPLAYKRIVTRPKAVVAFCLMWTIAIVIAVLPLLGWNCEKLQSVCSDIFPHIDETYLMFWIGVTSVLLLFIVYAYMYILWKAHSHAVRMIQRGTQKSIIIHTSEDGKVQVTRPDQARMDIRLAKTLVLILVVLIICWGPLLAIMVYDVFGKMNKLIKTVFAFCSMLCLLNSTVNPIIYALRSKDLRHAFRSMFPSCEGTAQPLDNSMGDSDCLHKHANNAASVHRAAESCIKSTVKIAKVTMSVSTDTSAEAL

[2] = In vitro metabolism in liver microsomes; details: for remaining after 60 min of incubation: human liver microsomes, 10 μM; for microsomal CLint at 10 μM: human, liver microsomes
d2 (DOP) (h) = target: T4, d2 (DOP) (h) (Homo sapiens, UniProt P41143); assay: Radioligand binding
T4 construct: Cerep
T4 sequence (P41143 whole entry): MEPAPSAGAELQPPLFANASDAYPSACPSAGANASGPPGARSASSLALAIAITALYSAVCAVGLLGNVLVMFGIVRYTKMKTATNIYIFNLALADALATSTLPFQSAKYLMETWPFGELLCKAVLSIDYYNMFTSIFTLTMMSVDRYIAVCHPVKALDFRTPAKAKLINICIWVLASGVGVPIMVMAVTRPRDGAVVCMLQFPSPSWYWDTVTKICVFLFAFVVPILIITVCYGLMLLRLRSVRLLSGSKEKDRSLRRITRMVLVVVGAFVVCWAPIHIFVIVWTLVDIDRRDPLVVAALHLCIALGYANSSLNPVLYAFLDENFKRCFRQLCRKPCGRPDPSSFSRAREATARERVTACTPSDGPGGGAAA

CYP2B6 = CYP2B6 (Homo sapiens, UniProt P20813); assay: CYP inhibition, human liver microsomes; details: CYP2B6, bupropion to OH-bupropion, 10 µM
CYP2B6, sequence (P20813 whole entry): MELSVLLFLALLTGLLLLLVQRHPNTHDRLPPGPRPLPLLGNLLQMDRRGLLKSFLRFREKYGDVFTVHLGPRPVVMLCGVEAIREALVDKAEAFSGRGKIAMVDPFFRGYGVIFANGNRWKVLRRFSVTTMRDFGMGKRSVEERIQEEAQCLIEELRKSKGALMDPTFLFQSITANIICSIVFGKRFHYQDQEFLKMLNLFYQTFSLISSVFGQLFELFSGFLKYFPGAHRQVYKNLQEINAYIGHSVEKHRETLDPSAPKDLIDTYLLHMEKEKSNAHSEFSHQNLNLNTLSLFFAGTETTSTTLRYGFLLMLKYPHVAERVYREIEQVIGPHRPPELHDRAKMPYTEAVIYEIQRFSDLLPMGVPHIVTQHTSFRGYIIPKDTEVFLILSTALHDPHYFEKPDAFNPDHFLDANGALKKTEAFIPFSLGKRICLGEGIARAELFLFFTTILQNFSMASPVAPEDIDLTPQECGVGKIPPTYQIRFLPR

TP (h) (TXA2/PGH2) = target: T5, TP (h) (TXA2/PGH2) (Homo sapiens, UniProt P21731); assay: Radioligand binding
T5 construct: Cerep
T5 sequence (P21731 1-343): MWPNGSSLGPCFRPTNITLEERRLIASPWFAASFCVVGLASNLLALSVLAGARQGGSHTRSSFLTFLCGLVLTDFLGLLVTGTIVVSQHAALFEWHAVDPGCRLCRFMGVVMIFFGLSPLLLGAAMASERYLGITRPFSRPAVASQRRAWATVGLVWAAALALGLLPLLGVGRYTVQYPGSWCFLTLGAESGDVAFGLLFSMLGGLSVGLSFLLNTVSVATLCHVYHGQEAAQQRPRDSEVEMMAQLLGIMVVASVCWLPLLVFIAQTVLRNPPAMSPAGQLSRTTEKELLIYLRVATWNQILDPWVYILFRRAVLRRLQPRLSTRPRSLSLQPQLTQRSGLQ

CYP2D6 = CYP2D6 (Homo sapiens, UniProt P10635); assay: CYP inhibition, human liver microsomes; details: CYP2D6, dextromethorphan to O-desmethyldextromethorphan, 10 µM
hERG channel = target: T6, hERG channel (Homo sapiens, UniProt Q12809); assay: hERG profiling, whole cell patch-clamp; format: cell-based
T6 construct: expressed in transfected cells; host or cells: HEK 293
T6 sequence (Q12809 whole entry): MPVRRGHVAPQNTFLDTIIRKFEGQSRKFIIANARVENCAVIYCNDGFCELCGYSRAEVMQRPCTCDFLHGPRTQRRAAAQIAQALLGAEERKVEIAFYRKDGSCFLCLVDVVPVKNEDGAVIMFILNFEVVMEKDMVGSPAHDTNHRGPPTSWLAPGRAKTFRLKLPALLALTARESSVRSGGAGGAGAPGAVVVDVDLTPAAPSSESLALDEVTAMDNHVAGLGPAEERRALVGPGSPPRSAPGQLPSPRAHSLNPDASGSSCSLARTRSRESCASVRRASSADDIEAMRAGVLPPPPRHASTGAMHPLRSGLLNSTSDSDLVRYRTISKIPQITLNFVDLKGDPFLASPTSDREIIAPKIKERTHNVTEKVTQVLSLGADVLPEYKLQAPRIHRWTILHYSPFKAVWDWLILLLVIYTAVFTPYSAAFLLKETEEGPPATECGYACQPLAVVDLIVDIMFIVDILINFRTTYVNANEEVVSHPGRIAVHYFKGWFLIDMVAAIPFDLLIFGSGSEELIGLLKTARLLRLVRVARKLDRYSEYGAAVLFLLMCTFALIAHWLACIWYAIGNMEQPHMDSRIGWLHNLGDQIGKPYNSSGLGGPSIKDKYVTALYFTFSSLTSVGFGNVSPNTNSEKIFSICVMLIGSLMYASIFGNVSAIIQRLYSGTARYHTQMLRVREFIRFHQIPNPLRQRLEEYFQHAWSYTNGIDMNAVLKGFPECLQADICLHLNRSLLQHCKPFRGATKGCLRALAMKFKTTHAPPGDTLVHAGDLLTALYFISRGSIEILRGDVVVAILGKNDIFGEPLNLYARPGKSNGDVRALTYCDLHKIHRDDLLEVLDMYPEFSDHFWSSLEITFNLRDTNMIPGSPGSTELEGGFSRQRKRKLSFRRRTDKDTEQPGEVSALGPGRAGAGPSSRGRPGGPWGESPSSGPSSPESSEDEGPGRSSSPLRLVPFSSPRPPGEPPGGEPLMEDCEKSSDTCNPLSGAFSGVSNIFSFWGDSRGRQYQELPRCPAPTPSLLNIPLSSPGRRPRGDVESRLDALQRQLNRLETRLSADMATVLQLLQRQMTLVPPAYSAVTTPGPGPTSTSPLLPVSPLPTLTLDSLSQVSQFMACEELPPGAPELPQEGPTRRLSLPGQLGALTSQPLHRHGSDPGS
Experimental: A HEK 293 cell line (Sigma Aldrich, catalogue number: 85120602) constitutively expressing the hERG channel in the membrane was used for the assay. The cells were cultured in MEM with Earle's salts and L-glutamine (10% FCS, non-essential amino acids, 300 μg ml^−1 Geneticin (G418)) and kept at 37 °C and under 5% CO2. Cells were routinely split every 3–4 days at a 1:5–1:10 ratio. The electrophysiological measurements were performed using the whole cell patch-clamp method. Extracellular bath solution contained 137 mM NaCl, 4 mM KCl, 1 mM MgCl2, 1.8 mM CaCl2, 10 mM glucose, 10 mM HEPES (pH 7.4 with NaOH), the intracellular pipette solution 130 mM KCl, 1 mM MgCl2, 5 mM MgATP, 5 mM EGTA and 10 mM HEPES (pH 7.2 with KOH). To assess the effects of SC81458 and SC83288 on the current through the hERG channel, a 1,500 ms of conditioning voltage pulse was applied every 20 s by the holding membrane potential (−80 mV) is carried out to +40 mV followed by a 500 ms test pulse of +40 mV to −40 mV. The amplitude of the current peak induced by the test pulse was determined at equilibrium (I0) and after (Idrug) addition of the substance. After the application of the substance, the cells were rinsed with extracellular bath solution until a complete recovery of the current occurred; otherwise, the cells were replaced with new ones.

b1 (h) = target: T7, b1 (h) (Homo sapiens, UniProt P08588); assay: Radioligand binding
T7 construct: Cerep (contract study)

k (KOP) = target: T8, k (KOP) (Rattus norvegicus, UniProt P34975); assay: Radioligand binding
T8 construct: Cerep
T8 sequence (P34975 whole entry): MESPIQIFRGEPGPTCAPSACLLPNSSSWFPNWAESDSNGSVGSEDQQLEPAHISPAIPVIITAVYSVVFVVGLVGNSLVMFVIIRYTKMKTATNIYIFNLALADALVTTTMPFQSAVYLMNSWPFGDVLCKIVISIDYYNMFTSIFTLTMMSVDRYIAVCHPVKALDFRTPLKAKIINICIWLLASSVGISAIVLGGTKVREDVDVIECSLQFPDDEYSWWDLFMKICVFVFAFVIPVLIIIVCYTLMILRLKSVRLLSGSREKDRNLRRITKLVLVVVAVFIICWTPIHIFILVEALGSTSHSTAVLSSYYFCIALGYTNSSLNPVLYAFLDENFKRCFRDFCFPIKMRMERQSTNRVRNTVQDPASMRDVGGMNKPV

NK3 (h) = target: T9, NK3 (h) (Homo sapiens, UniProt P29371); assay: Radioligand binding
T9 construct: Cerep
T9 sequence (P29371 whole entry): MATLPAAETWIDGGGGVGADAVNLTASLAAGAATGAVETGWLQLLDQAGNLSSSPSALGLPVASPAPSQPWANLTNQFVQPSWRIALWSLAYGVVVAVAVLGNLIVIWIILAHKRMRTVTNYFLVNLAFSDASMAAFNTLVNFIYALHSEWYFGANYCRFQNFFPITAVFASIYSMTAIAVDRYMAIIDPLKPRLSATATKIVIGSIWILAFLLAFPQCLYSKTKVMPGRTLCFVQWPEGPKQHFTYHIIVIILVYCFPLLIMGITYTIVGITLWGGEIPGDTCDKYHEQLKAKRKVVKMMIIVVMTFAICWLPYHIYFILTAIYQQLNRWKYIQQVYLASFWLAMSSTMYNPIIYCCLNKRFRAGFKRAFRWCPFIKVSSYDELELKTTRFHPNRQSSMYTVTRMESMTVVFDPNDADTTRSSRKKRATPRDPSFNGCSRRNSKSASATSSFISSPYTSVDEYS

[3] = In vitro metabolism in liver microsomes; details: mouse liver microsomes, 10 μM
CXCR2 (IL-8B) (h) = target: T10, CXCR2 (IL-8B) (h) (Homo sapiens, UniProt P25025); assay: Radioligand binding
T10 construct: Cerep
T10 sequence (P25025 1-360): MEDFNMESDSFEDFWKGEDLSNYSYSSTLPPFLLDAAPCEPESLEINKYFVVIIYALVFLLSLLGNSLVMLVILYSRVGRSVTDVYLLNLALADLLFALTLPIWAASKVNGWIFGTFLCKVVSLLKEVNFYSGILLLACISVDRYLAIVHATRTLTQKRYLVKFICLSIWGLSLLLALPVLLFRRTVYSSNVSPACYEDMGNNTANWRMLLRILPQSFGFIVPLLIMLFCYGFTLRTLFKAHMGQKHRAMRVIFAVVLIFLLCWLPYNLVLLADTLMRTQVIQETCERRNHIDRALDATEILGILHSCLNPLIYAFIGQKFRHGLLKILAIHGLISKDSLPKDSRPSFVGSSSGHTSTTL

M2 (h) = target: T11, M2 (h) (Homo sapiens, UniProt P08172); assay: Radioligand binding
T11 construct: Cerep
T11 sequence (P08172 whole entry): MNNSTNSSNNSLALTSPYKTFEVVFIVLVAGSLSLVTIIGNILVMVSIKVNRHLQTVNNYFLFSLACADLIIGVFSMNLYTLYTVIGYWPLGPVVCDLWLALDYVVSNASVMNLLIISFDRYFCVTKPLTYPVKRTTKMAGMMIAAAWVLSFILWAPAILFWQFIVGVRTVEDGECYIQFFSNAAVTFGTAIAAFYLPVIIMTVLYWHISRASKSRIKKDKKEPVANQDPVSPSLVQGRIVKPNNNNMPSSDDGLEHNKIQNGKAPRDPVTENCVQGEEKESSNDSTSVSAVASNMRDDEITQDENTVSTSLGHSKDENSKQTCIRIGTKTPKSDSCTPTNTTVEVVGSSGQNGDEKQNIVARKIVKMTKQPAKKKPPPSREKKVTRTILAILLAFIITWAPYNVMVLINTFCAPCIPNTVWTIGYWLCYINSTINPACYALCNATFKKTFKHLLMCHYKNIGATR

T1 sequence (P11229 whole entry): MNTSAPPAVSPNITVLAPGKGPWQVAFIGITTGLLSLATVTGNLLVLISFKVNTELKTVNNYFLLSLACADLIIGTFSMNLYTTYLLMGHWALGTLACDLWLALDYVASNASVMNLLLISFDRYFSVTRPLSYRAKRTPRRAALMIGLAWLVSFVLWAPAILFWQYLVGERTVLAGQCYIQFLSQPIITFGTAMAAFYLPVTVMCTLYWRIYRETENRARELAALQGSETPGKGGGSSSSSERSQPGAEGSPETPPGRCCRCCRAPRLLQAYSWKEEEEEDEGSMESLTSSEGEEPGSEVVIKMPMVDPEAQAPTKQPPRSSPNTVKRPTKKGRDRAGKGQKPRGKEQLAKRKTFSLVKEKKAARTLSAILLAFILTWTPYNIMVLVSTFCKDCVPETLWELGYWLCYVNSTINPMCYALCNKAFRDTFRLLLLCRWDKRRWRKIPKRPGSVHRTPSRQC

| SMILES | Inhibition of control specific binding (M1 (h)) [%] | IC90 (P. falciparum strain Dd2) [nM] | absolute Hill coefficient (P. falciparum strain Dd2) | IC50 [1] [nM] | Inhibition of control specific binding (A3 (h)) [%] | Inhibition of control specific binding (CB1 (h)) [%] | remaining after 60 min of incubation [2] | Inhibition of control specific binding (d2 (DOP) (h)) [%] | Remaining enzyme activity (CYP2B6) [%] | Inhibition of control specific binding (TP (h) (TXA2/PGH2)) [%] | Remaining enzyme activity (CYP2D6) [%] | Inhibition of control specific binding (b1 (h)) [%] | Inhibition of control specific binding (k (KOP)) [%] | Inhibition of control specific binding (NK3 (h)) [%] | remaining after 60 min of incubation [3] [%] | Inhibition of control specific binding (CXCR2 (IL-8B) (h)) [%] | Inhibition of control specific binding (M2 (h)) [%] | other results |
| --- | --- | --- | --- | --- | --- | --- | --- | --- | --- | --- | --- | --- | --- | --- | --- | --- | --- | --- |
| COC(=O)N1CCN(C(=N)c2cccc(NC(=O)Nc3ccc(S(=O)(=O)NCc4ccc(S(N)(=O)=O)cc4)cc3)c2)CC1 [SC83288, methyl 4-(imino(3-(3-(4-(N-(4-sulfamoylbenzyl)sulfamoyl)phenyl)ureido)phenyl)methyl) piperazine-1-carboxylate] | 75 | 8 | 2.6±0.3 | 6 ± 1 | 0 | 1 | 50% | 1 | 95 | -5 | 91 | 7 | 36 | 5 | 96 | -1 | 68 | microsomal CLint at 10 μM [2]: 75.8 ± 2.5 µL/min/mg; hERG activity retained (hERG channel; 20 μM): > 90%; hERG channel remaining active (hERG channel; 100 μM): 50% |
| CCCCN1CCN(C(=N)c2cccc(NC(=O)Nc3ccc(S(=O)(=O)NCc4ccc(S(N)(=O)=O)cc4)cc3)c2)CC1 [SC81458, 4-(3-(3-((4-butylpiperazin-1-yl)(imino)methyl)phenyl)ureido)-N-(4-sulfamoylbenzyl) benzenesulfonamide] | 36 | 18 | 2.6±0.3 | 13 ± 8 | 0 | 21 | almost completely metabolized | 10 | 87 | -10 | 107 | -2 | 43 | 6 | 54 | -8 | 45 | microsomal CLint at 10 μM ([2]; monkey): 303 µL/min/mg; hERG activity retained (hERG channel; 60 μM): > 90% |
